Assays:
[1] = system: PDGF-BB expression in human vascular endothelial cells HUVEC; assay: Evaluation of PDGF-B production accelerating action in vascular endothelial cells (ELISA and quantitative RT-PCR); assay type: cell-based; settings: retinoic acid at 1 μm or 10 μm vs DMSO solvent control, cultured 2 days, PDGF-BB in culture supernatant by ELISA and PDGF-B mRNA by quantitative PCR (FIG. 8)
Description: Evaluation of PDGF-B Production Accelerating Action in
Vascular Endothelial Cells
Human vascular endothelial cells HUVEC were sub-cultured in EGM-2 medium (Sanko Junyaku Co., Ltd.), and the fourth generation cells were suspended in Humedia-EG2 medium not containing VEGF-A (Kurabo Industries Ltd.), followed by disseminating in a collage-coated 24-well multiplate (Asahi Glass Co., Ltd.) at a ratio of 20,000 cells and culturing for 3 to 5 days at 37° C. until the cells reached confluence in the presence of 5% CO2. After replacing the medium with Humedia-EG2 medium (Kurabo Industries Ltd.) containing retinoic acid at 1 μm or 10 μm or DMSO used as a solvent control, culturing was further continued for 2 days. Following completion of culturing, the culture supernatant was recovered and PDGF-BB was quantified in accordance with the protocol provided using Human PDGF-BB Quantikine ELISA Kit (R&D Systems Inc.). […] One-step quantitative RT-PCR was then carried out on the PDGF-B gene for each sample using an equal volume of mRNA as template, using the primer pair of SEQ ID NO: 9 and SEQ ID NO: 10, and using QuantiFast SYBR Green RT-PCR Kit (Qiagen Inc.) for the reaction reagent and LightCycler (Roche Diagnostics GmbH) for the reaction apparatus. […]

[2] = system: adipose-derived mesenchymal stem cells MSC; assay: Evaluation of migration ability of mesenchymal stem cells (cell insert assay); assay type: cell-based; settings: 5 ng/ml to 30 ng/ml in StemPro serum-free MSC medium; overnight; in comparison with PDGF-AA and PDGF-AB (FIG. 2)
Description: Evaluation of Migration Ability
Commercially available adipose-derived mesenchymal stem cells MSC were purchased and sub-cultured in MesenPro mesenchymal stem cell medium (Invitrogen Corp.). Then, PDGF-AA, PDGF-AB or PDGF-BB (R&D Systems Inc.) was added to StemPro serum-free MSC medium (Invitrogen Corp.) in 24-well culture plates at a concentration of 5 ng/ml to 30 ng/ml, and fibronectin-coated cell inserts (BD Bioscience Inc.) were placed thereon followed by seeding 50,000 MSC suspended in StemPro medium. After culturing overnight in a CO2 incubator, the culture fluid was removed by aspiration. Thereafter, the cell inserts were immersed for 10 minutes in Hoechist 33258-PBS solution, and the nuclei of cells adhered to the cell insert were stained. After washing with PBS, the backs of the cell inserts were observed under a fluorescence microscope and images were captured. Five random images of each cell insert were captured followed by counting the number of cells that transferred to the cell insert.

`CC1=C(/C=C/C(C)=C/C=C/C(C)=C/C(=O)O)C(C)(C)CCC1` [tretinoin, all-trans retinoic acid] was tested, and the “acceleration of expression of PDGF-BB” value [1] was “concentration-dependent activity” and the “acceleration of expression of PDGF-BB” value ([1]; listed as retinoic acid) was “accelerates expression of PDGF-BB”.

B1: PDGF-BB: platelet-derived growth factor-BB protein (R&D Systems Inc.), homodimer of the PDGF B chain (protein, UniProt P01127 82-190, looked up)
Platelet-derived growth …: SLGSLTIAEPAMIAECKTRTEVFEISRRLIDRTNANFLVWPPCVEVQRCSGCCNNRNVQCRPTQVQLRPVQVRKIEIVRKKPIFKKATVTLEDHLACKCETVAAARPVT
modifications: homodimer
notes: platelet-derived growth factor-BB protein (R&D Systems Inc.), homodimer of the PDGF B chain
With B1 the “migration ability of mesenchymal stem cells” value [2] was “significantly enhance the migration ability of stem cells”.

Reference: US10017817B2, “Skin activation by acceleration of PDGF-BB activity” (Shiseido Company, Ltd., priority 2010, dated 2018)
